Results as given in ChEMBL document CHEMBL3124920, “Substituted Benzofurans as Inhibitors of HCV NS5B Protein” (ACS Med Chem Lett, 2014).

What was measured:
Hepatitis C virus = assay: Antiviral activity against Hepatitis C virus genotype 1b infected in human HuH7 cells after 3 days by luciferase reporter gene assay; format: functional, organism-based, Hepacivirus hominis; conditions: Huh-7, 72 h
[1] = Inhibition of HCV NS5B polymerase after 4 hrs by on-bead solid phase homogeneous assay; parameters: species or system Hepacivirus hominis

Row | EC50 (Hepatitis C virus) [nM] | IC50 [1] [nM] | Structure (SMILES)
1 | 9 | – | CCN(c1cc2oc(-c3ccc(F)cc3)c(-c3ncc[nH]3)c2c(F)c1-c1cc(C(=O)NC2(c3ncccn3)CC2)c(OC)cc1C)S(C)(=O)=O
2 | 7.2 | – | CCNc1cc2oc(-c3ccc(F)cc3)c(-c3ncc[nH]3)c2c(F)c1-c1cc(C(=O)NC2(c3ncccn3)CC2)c(OC)cc1C
3 | 30 | 30 | COc1cc(C)c(-c2ccc3oc(-c4ccc(F)cc4)c(-c4ncc[nH]4)c3c2F)cc1C(=O)NC1(c2ncccn2)CC1
